Results as given in patent US11485742B2, “2-azaspiro[3.4]octane derivatives as M4 agonists” (NOVARTIS AG, priority 2019, dated 2022).

Target: T1, human cloned CHRM5 receptor (Homo sapiens, UniProt P08912)
T1 construct: expressed in transfected cells; host or cells: CHO (M5_CHO)
T1 sequence (P08912 1-532): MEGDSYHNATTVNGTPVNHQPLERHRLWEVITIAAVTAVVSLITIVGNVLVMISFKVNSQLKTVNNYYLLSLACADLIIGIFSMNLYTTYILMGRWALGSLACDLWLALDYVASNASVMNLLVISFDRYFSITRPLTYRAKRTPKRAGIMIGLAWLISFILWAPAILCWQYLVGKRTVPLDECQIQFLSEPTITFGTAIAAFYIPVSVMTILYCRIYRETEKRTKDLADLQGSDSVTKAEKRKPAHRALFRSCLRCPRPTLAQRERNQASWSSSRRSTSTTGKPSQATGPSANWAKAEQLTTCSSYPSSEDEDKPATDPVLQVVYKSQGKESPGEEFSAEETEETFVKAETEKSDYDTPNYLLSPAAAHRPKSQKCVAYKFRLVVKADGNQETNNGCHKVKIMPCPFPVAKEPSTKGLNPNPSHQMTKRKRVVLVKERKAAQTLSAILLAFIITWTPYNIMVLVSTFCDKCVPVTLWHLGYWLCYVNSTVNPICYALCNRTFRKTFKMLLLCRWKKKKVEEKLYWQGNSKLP
Assay: CHRM5 Ca++ Flux Assay (M5_CHO cells, agonist mode)
Format: cell-based
Conditions: for Emax: Percent Activity (PA) measured to EC100 of Carbachol, read-out: M5 FDSS PA %; for EC50: agonist mode, geometric mean if tested more than once, read-out: M5 FDSS EC50
Outline: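 CHO-K1 cells stably expressing human M3 or M5 receptor, dye-loaded ≥1 h, treated with 11-point compound doses in triplicate; Ca++ flux read over 3 min (FDSS). Agonist-mode four-parameter fit; percent activity relative to carbachol EC100; repeat tests reported as geometric mean.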

Emax [%] | EC50 [µM] | SMILES
0 | > 25 | Fc1ccc(OC[C@H]2CCCO2)c(C2CCN([C@@H]3COC4(C3)CN(c3nnco3)C4)CC2)c1 [Example 2M, (S)-7-(4-(5-fluoro-2-(((R)-tetrahydrofuran-2-yl)methoxy)phenyl)piperidin-1-yl)-2-(1,3,4-oxadiazol-2-yl)-5-oxa-2-azaspiro[3.4]octane]
0 | > 25 | Fc1ccc(OCC2(F)COC2)c(C2CCN([C@@H]3COC4(C3)CN(c3nnco3)C4)CC2)c1 [Example 2J, (S)-7-(4-(5-fluoro-2-((3-fluorooxetan-3-yl)methoxy)phenyl)piperidin-1-yl)-2-(1,3,4-oxadiazol-2-yl)-5-oxa-2-azaspiro[3.4]octane]
0 | > 25 | Fc1ccc(OCC2COC2)c(C2CCN([C@@H]3COC4(C3)CN(c3nncs3)C4)CC2)c1 [Example 2A, (S)-7-(4-(5-fluoro-2-(oxetan-3-ylmethoxy)phenyl)piperidin-1-yl)-2-(1,3,4-thiadiazol-2-yl)-5-oxa-2-azaspiro[3.4]octane]
0 | > 25 | Fc1ccc(OC[C@H]2CCOC2)c(C2CCN([C@@H]3COC4(C3)CN(c3nncs3)C4)CC2)c1 [Example 5X, (S)-7-(4-(5-fluoro-2-(((S)-tetrahydrofuran-3-yl)methoxy)phenyl)piperidin-1-yl)-2-(1,3,4-thiadiazol-2-yl)-5-oxa-2-azaspiro[3.4]octane]
0 | > 25 | Fc1ccc(OC2CC3(COC3)C2)c(C2CCN([C@@H]3COC4(C3)CN(c3ncon3)C4)CC2)c1 [Example 6C, (S)-7-(4-(2-((2-oxaspiro[3.3]heptan-6-yl)oxy)-5-fluorophenyl)piperidin-1-yl)-2-(1,2,4-oxadiazol-3-yl)-5-oxa-2-azaspiro[3.4]octane]
0 | 0.73 | CCc1nnc(COc2ccc(F)cc2C2CCN([C@@H]3COC4(C3)CN(c3nnco3)C4)CC2)s1 [Example 2T, (S)-7-(4-(2-((5-ethyl-1,3,4-thiadiazol-2-yl)methoxy)-5-fluorophenyl)piperidin-1-yl)-2-(1,3,4-oxadiazol-2-yl)-5-oxa-2-azaspiro[3.4]octane]
0 | > 25 | Fc1ccc(OCC2CC3(COC3)C2)c(C2CCN([C@@H]3COC4(C3)CN(c3nnco3)C4)CC2)c1 [Example 2S, (S)-7-(4-(2-((2-oxaspiro[3.3]heptan-6-yl)methoxy)-5-fluorophenyl)piperidin-1-yl)-2-(1,3,4-oxadiazol-2-yl)-5-oxa-2-azaspiro[3.4]octane]
0 | > 25 | CC1(COc2ccc(F)cc2C2CCN([C@@H]3COC4(C3)CN(c3nnco3)C4)CC2)COC1 [Example 2K, (S)-7-(4-(5-fluoro-2-((3-methyloxetan-3-yl)methoxy)phenyl)piperidin-1-yl)-2-(1,3,4-oxadiazol-2-yl)-5-oxa-2-azaspiro[3.4]octane]
0 | > 25 | CC(C)(O)COc1ccccc1C1CCN([C@@H]2COC3(C2)CN(c2ncns2)C3)CC1 [Example 5Y, (S)-1-(2-(1-(2-(1,2,4-thiadiazol-5-yl)-5-oxa-2-azaspiro[3.4]octan-7-yl)piperidin-4-yl)phenoxy)-2-methylpropan-2-ol]
0 | > 25 | CCC1(COc2ccc(F)cc2C2CCN([C@@H]3COC4(C3)CN(c3nnco3)C4)CC2)COC1 [Example 2P, (S)-7-(4-(2-((3-ethyloxetan-3-yl)methoxy)-5-fluorophenyl)piperidin-1-yl)-2-(1,3,4-oxadiazol-2-yl)-5-oxa-2-azaspiro[3.4]octane]

The remaining lines, values behind:

SMILES | Emax [%] | EC50 [µM]
COC(C)(C)CCOc1ccc(F)cc1C1CCN([C@@H]2COC3(C2)CN(c2nnco2)C3)CC1 [Example 1K, (S)-7-(4-(5-fluoro-2-(3-methoxy-3-methylbutoxy)phenyl)piperidin-1-yl)-2-(1,3,4-oxadiazol-2-yl)-5-oxa-2-azaspiro[3.4]octane] | 0 | > 25
c1ccc(C2CCN([C@@H]3COC4(C3)CN(c3nnco3)C4)CC2)c(OC2COC2)c1 [Example 1P, (S)-2-(1,3,4-oxadiazol-2-yl)-7-(4-(2-(oxetan-3-yloxy)phenyl)piperidin-1-yl)-5-oxa-2-azaspiro[3.4]octane] | 0 | > 25
Fc1ccc(OC2COC2)c(C2CCN([C@@H]3COC4(C3)CN(c3nnco3)C4)CC2)c1 [Example 1A, (S)-7-(4-(5-fluoro-2-(oxetan-3-yloxy)phenyl)piperidin-1-yl)-2-(1,3,4-oxadiazol-2-yl)-5-oxa-2-azaspiro[3.4]octane] | 0 | > 25
COc1cc(F)ccc1C1CCN([C@@H]2COC3(C2)CN(c2nnco2)C3)CC1 [Example 1S, (S)-7-(4-(4-fluoro-2-methoxyphenyl)piperidin-1-yl)-2-(1,3,4-oxadiazol-2-yl)-5-oxa-2-azaspiro[3.4]octane] | 0 | > 25
Fc1ccc(OC[C@H]2CCOC2)c(C2CCN([C@@H]3COC4(C3)CN(c3nnco3)C4)CC2)c1 [Example 1I, (S)-7-(4-(5-fluoro-2-(((S)-tetrahydrofuran-3-yl)methoxy)phenyl)piperidin-1-yl)-2-(1,3,4-oxadiazol-2-yl)-5-oxa-2-azaspiro[3.4]octane] | 0 | > 25
